Test results reported in patent US20040219105A1, “Human hookworm model and method for maintaining human hookworm in a non-human primate” (priority 2003, published 2004).

Test system: whole blood basophils
Assay: Whole blood basophil histamine release (Histamine Assay Kit)
Format: cell-based, marmoset (Callithrix jacchus)
Conditions: whole blood of hookworm-infected animals; 5 out of 6 animals
Protocol: Furthermore, whole blood basophils collected from the animals were challenged for their ability to release histamine. One hundred (100) μl of whole blood was collected from the primates into heparinized tubes and the volume was made up to 500 μl using PIPES buffer (0.01 M Piperazine-N′N-bis[2-ethaneculfonic acid], 0.14 M sodium acetate, 5 mM potassium acetate, 0.1% glucose, 1 mM CaCl2 and 0.03% human serum albumin, pH 7.4). Spontaneous histamine release was assessed following incubation for 1 h at 37° C., while total histamine release was assessed when 50 μl of whole blood in 450 μl dH2O was freeze-thawed three times. […] Histamine released in each whole blood challenge was detected using a Histamine Assay Kit (Hycor Biomedical Ltd.). […] Antibody binding was visualised by the addition of 100 μl of 1 mg/ml of p-nitrophenyl phosphate (pNPP) substrate The plates were developed for 1 h at 37° C. and the absorbance measured at 405 nm using a Dynex MRX absorbance microplate reader (DYNEX Technologies, Chantilly, Va.). For all samples and calibrators the percentage binding was determined by the following: [formula]
A standard curve was constructed by plotting the Percentage Binding against concentration for each histamine calibrator, and the levels of histamine in each challenge were determined from this curve.

calreticulin
basophil histamine release: significant histamine release
